Laboratory results taken from patent US20100158808A1, “Altered Activity of Toll-Like Receptors” (priority 2003, published 2010).

Tested on: CD86
Experiment: CD86 expression in spleen after injection into the spleens of mice
Assay type: in vivo
Settings: for Expression of CD86 in the spleen: injection into spleen of mice
Description: Surgical Procedures and Immunohistochemistry. Mice were anesthetized and the spleen was directly visualized through an incision in the lateral abdominal wall. Particular substances in […] of PBS were injected into the spleen. Spleens were harvested after 12 hours and sections were frozen in liquid nitrogen. Tissue sections were prepared and stained as described in (Dempsey et al. supra) with the following modifications. Secondary detection antibodies were diluted in M.O.M. diluent (Vector Laboratories, Burlingame, Calif.) and preabsorbed with mouse serum (Jackson ImmunoResearch Laboratories, West Grove, Pa.). Fluorescent images were converted to grayscale using SPOT software (Diagnostic Instruments, Sterling Heights, Mich.).
To determine whether elastase activity on ECM activates TLR4 responses in living tissues, elastase was injected into the spleens of mice. Such treatment typically causes rapid shedding of HS proteoglycans from the tissue, especially from blood vessels (Johnson et al. (2004) J. Immunol. (Cutting Edge) 172:20-24). The spleens were removed and examined for expression of CD86, a protein expressed in response to TLR4 signaling (Kaisho and Akira (2002) Biochim. Biophys. Acta 1589:1-13). […] In contrast, the expression of CD86 observed in leukocytes detached from ECM and stimulated with LPS or HS is considerably heightened (Johnson et al. supra). […] The changes in CD86 expression induced by elastase required TLR4, as the increase in CD86 was not observed when elastase was injected into spleens of mice lacking TLR4 function. Thus, the ECM may limit TLR4 signaling in vivo, and cleavage of ECM can trigger TLR4 signaling in living tissues.

Substance	Expression of CD86 in the spleen	Increase in CD86 in the spleen (mice lacking TLR4 function)
elastase: pancreatic elastase (Calbiochem; type IV porcine pancreatic elastase, Sigma-Aldrich), protease that cleaves ECM proteins	profoundly increased	not observed
heparan sulfate [HS]	modestly increased	–
lipopolysaccharide [LPS]	modestly increased	–
